Assay results published in patent publication US20240108623A1, “METHODS OF TREATING CANCER WITH POZIOTINIB” (BOARD OF REGENTS, THE UNIVERSITY OF TEXAS SYSTEM, priority 2021, published 2024).

How the values were obtained:
Test in all cases: Ba/F3 cell drug screening, Cell Titer Glo
Type in all cases: cell-based
EGFR Ex19del T790M C797S = biological target: T1, EGFR Ex19del T790M C797S (Homo sapiens, UniProt P00533, C797S/DEL746-750/T790M); conditions: Ba/F3 cells expressing EGFR Ex19del T790M C797S; 72 hours
T1 construct: expressed in transfected cells; host or cells: Ba/F3 (retroviral transduction, pBabe-Puro based vectors)
Description: (§1) Ba/F3 cell generation, drug screening, and IC50 approximations. Ba/F3 cells were obtained as a gift from Dr. Gordon Mills (MD Anderson Cancer Center), and maintained in RPMI (Sigma) containing 10% FBS, 1% penicillin/streptomycin, and 10 ng/ml recombinant mIL-3 (R&D Biosystems). To establish stable Ba/F3 cell lines, Ba/F3 cells were transduced with retroviruses containing mutant EGFR plasmids for 12-24 hours. Retroviruses were generated using Lipofectamine 2000 (Invitrogen) transfections of Phoenix 293T-ampho cells (Orbigen) with pBabe-Puro based vectors listed below in Table 6. Vectors were generated by GeneScript or Bioinnovatise using parental vectors from Addgene listed below in Table 6.
(§2) After 48-72 hours of transduction, 2 μg/ml puromycin (Invitrogen) was added to Ba/F3 cell lines in complete RPMI. To select for EGFR positive cell lines, cells were stained with PE-EGFR (Biolegend) and sorted by FACS. After sorting, EGFR positive cells were maintained in RPMI containing 10% FBS, 1% penicillin/streptomycin, and 1 ng/ml EGF to support cell viability. Drug screening was performed as previously described^41,42. Shortly, cells were plated in 384-well plates (Greiner Bio-One) at 2000-3000 cells per well in technical triplicate. Seven different concentrations of TKIs or DMSO vehicle were added to reach a final volume of 40 μL per well. After 72 hours, 11p L of Cell Titer Glo (Promega) was added to each well. Plates were incubated for a minimum of 10 minutes, and bioluminescence was determined using a FLUOstar OPTIMA plate reader (BMG LABTECH). Raw bioluminescence values were normalized to DMSO control treated cells, and values were plotted in GraphPad Prism. Non-linear regressions were used to fit the normalized data with a variable slope, and IC50 values were determined by GraphPad prism by interpolation of concentrations at 50% inhibition. Drug screens were performed in technical triplicate on each plate and either duplicate or triplicate biological replicates. Mutant to WT ratios (Mut/WT) for each drug were calculated by dividing the IC50 values of mutant cell lines by the average IC50 value of Ba/F3 cells expressing WT EGFR supplemented with 10 ng/ml EGF for each drug. Statistical differences between groups were determined by ANOVA as described in the figure legends.

EGFR V774M = biological target: T2, EGFR V774M (Homo sapiens, UniProt P00533, V774M); conditions: Ba/F3 cells expressing EGFR V774M; 72 hours
T2 construct: host or cells: Ba/F3 (retroviral transduction, pBabe-Puro based vectors)
Description: as §1, §2

EGFR A763insLQEA = biological target: T3, EGFR A763insLQEA (Homo sapiens, UniProt P00533, INS763LQEA); conditions: Ba/F3 cells expressing EGFR A763insLQEA; 72 hours
T3 construct: expressed in transfected cells; host or cells: Ba/F3 (retroviral, pBabe-Puro based vector)
Description: as §1, §2

EGFR G719A = biological target: T4, EGFR G719A (Homo sapiens, UniProt P00533, G719A); conditions: Ba/F3 cells expressing EGFR G719A; 72 hours
T4 construct: expressed in transfected cells; host or cells: Ba/F3 (retroviral transduction, pBabe-Puro based vectors)
Description: as §1, §2

EGFR N771dupN G724S = biological target: T5, EGFR N771dupN G724S (Homo sapiens, UniProt P00533, DUP771-771/G724S); conditions: Ba/F3 cells expressing EGFR N771dupN G724S; 72 hours
T5 construct: expressed in transfected cells; host or cells: Ba/F3 (retroviral, pBabe-Puro based vector; created by GeneScript from EGFR G724S, c.2313_2314insAAC)
Description: as §1, §2

EGFR L858R T790M V843I = biological target: T6, EGFR L858R T790M V843I (Homo sapiens, UniProt P00533, L858R/T790M/V843I); conditions: Ba/F3 cells expressing EGFR L858R T790M V843I; 72 hours
T6 construct: expressed in transfected cells; host or cells: Ba/F3 (retroviral transduction, pBabe-Puro based vectors)
Description: as §1, §2

EGFR A763insFQEA = biological target: T7, EGFR A763insFQEA (Homo sapiens, UniProt P00533, INS763FQEA); conditions: Ba/F3 cells expressing EGFR A763insFQEA; 72 hours
T7 construct: expressed in transfected cells; host or cells: Ba/F3 (retroviral, pBabe-Puro based vector)
Description: as §1, §2

EGFR L858R/T790M/L718Q = biological target: T8, EGFR L858R/T790M/L718Q (Homo sapiens, UniProt P00533, L718Q/L858R/T790M); conditions: Ba/F3 cells expressing EGFR L858R/T790M/L718Q; 72 hours
T8 construct: expressed in transfected cells; host or cells: Ba/F3 (retroviral transduction, pBabe-Puro based vectors)
Description: as §1, §2

EGFR G719A/R776C = biological target: T9, EGFR G719A/R776C (Homo sapiens, UniProt P00533, G719A/R776C); conditions: Ba/F3 cells expressing EGFR G719A/R776C; 72 hours
T9 construct: expressed in transfected cells; host or cells: Ba/F3 (retroviral transduction, pBabe-Puro based vectors)
Description: as §1, §2

EGFR S720P = biological target: T10, EGFR S720P (Homo sapiens, UniProt P00533, S720P); conditions: Ba/F3 cells expressing EGFR S720P; 72 hours
T10 construct: expressed in transfected cells; host or cells: Ba/F3 (retroviral, pBabe-Puro based vector; created by GeneScript from EGFR WT)
Description: as §1, §2

EGFR L858R T790M L718V = biological target: T11, EGFR L858R T790M L718V (Homo sapiens, UniProt P00533, L718V/L858R/T790M); conditions: Ba/F3 cells expressing EGFR L858R T790M L718V; 72 hours
T11 construct: expressed in transfected cells; host or cells: Ba/F3 (retroviral transduction, pBabe-Puro based vectors)
Description: as §1, §2

EGFR L747P = biological target: T12, EGFR L747P (Homo sapiens, UniProt P00533, L747P); conditions: Ba/F3 cells expressing EGFR L747P; 72 hours
T12 construct: expressed in transfected cells; host or cells: Ba/F3 (retroviral transduction, pBabe-Puro based vectors)
Description: as §1, §2

EGFR L718Q T790M = biological target: T13, EGFR L718Q T790M (Homo sapiens, UniProt P00533, L718Q/T790M); conditions: Ba/F3 cells expressing EGFR L718Q T790M; 72 hours
T13 construct: expressed in transfected cells; host or cells: Ba/F3 (retroviral transduction, pBabe-Puro based vectors)
Description: as §1, §2

EGFR A767insASV = biological target: T14, EGFR A767insASV (Homo sapiens, UniProt P00533, DUP767-769); conditions: Ba/F3 cells expressing EGFR A767insASV; 72 hours
T14 construct: expressed in transfected cells; host or cells: Ba/F3 (retroviral, pBabe-Puro based vector)
Description: as §1, §2

EGFR G719A L861Q = biological target: T15, EGFR G719A L861Q (Homo sapiens, UniProt P00533, G719A/L861Q); conditions: Ba/F3 cells expressing EGFR G719A L861Q; 72 hours
T15 construct: expressed in transfected cells; host or cells: Ba/F3 (retroviral transduction, pBabe-Puro based vectors)
Description: as §1, §2

C=CC(=O)N1CCC(Oc2cc3c(Nc4ccc(Cl)c(Cl)c4F)ncnc3cc2OC)CC1 [Poziotinib]
Response of Cells Comprising T790M-like-R EGFR Mutations to Second-Generation TKIs (EGFR Ex19del T790M C797S): 1862 | Response of Cells Comprising PACC EGFR Mutations to Second-Generation TKIs (EGFR V774M): 0.01859 | Response of Cells Comprising Classical-Like EGFR Mutations to Second-Generation TKIs (EGFR A763insLQEA): 0.01607 | Response of Cells Comprising PACC EGFR Mutations to Second-Generation TKIs (EGFR G719A): 0.02575 | Response of Cells Comprising Ex20ins EGFR Mutations to Poziotinib (EGFR N771dupN G724S): 0.2167 | Response of Cells Comprising T790M-like-S EGFR Mutations to Second-Generation TKIs (EGFR L858R T790M V843I): 5.408 | Response of Cells Comprising Classical-Like EGFR Mutations to Second-Generation TKIs (EGFR A763insFQEA): 0.06955 | Response of Cells Comprising T790M-like-R EGFR Mutations to Second-Generation TKIs (EGFR L858R/T790M/L718Q): 70.12 | Response of Cells Comprising PACC EGFR Mutations to Second-Generation TKIs (EGFR G719A/R776C): 0.01624 | Response of Cells Comprising Classical-Like EGFR Mutations to Second-Generation TKIs (EGFR S720P): 0.1814 | Response of Cells Comprising T790M-like-R EGFR Mutations to Second-Generation TKIs (EGFR L858R T790M L718V): 33.63 | Response of Cells Comprising PACC EGFR Mutations to Second-Generation TKIs (EGFR L747P): 0.1338 | Response of Cells Comprising T790M-like-R EGFR Mutations to Second-Generation TKIs (EGFR L718Q T790M): 6.487 | Response of Cells Comprising Ex20ins EGFR Mutations to Poziotinib (EGFR A767insASV): 0.3183 | Response of Cells Comprising PACC EGFR Mutations to Second-Generation TKIs (EGFR G719A L861Q): 0.09492
